{"source": "paper PMC9610207", "about": "(Viruses, 2022)", "key": {"SARS-CoV-2 [1]": {"test_system": "SARS-CoV-2", "conditions": "cited from earlier work"}, "SARS-CoV-2 [2]": {"test_system": "SARS-CoV-2", "type": "cell-based"}, "SARS-CoV-2 [3]": {"test_system": "SARS-CoV-2", "conditions": "cited from earlier work", "remark": "listed apart in the source"}, "SARS-CoV-2 [4]": {"test_system": "SARS-CoV-2", "type": "cell-based", "remark": "listed apart in the source"}}, "data": [{"smiles": "CCN(CC)CCCC(C)Nc1ccnc2cc(Cl)ccc12", "note": "(stereo not shown) [chloroquine, Chloroquine]", "values": [{"measurement": "SARS-CoV-2 infection in VeroE6, previous studies", "setting": "SARS-CoV-2 [1]", "value": "inhibited"}, {"measurement": "viral infection in VeroE6 with chloroquine", "setting": "SARS-CoV-2 [2]", "value": "strongly inhibited"}, {"measurement": "SARS-CoV-2 infection in Calu-3, previous studies", "setting": "SARS-CoV-2 [3]", "value": "not"}, {"measurement": "viral infection in Calu-3 with chloroquine", "setting": "SARS-CoV-2 [4]", "value": "resistant"}]}]}
